Measured values reported in patent publication US7314867B2, “Pharmaceutical composition comprising a retro-iverso isomer peptide” (priority 2002, dated 2008).
Entries after “also recorded” stand apart in the source; their conditions may differ.

System: serum triglyceride levels in male ICR mice
Assay: Oral administration of peptides to determine inhibition of serum triglyceride level elevation after olive oil feeding
Format: in vivo
Conditions: for Serum Triglyceride: male ICR mice fasted overnight, olive oil 250 mg by gastric intubation, peptide 1.0 mg/mouse orally one hour after lipid, blood collected after two hours; for % Decrease (serum triglyceride) / Activity in lowering elevated serum triglyceride levels compared with the corresponding natural reference peptide: male ICR mice, peptide 1.0 mg/mouse orally; for % Decrease (serum triglyceride): olive oil 250 mg, versus Olive Oil Only; for Activity in lowering elevated serum triglyceride levels compared with the corresponding natural reference peptide: olive oil load, comparison in words
Protocol: Olive oil (250 mg) was administered via gastric intubation to male ICR mice (6-week old, body weight: 20 g), which were fasted overnight. The peptides were dissolved in 0.1 ml saline solution and administered orally one hour after lipid administration. For the control group, 0.1 ml of saline solution was administered per mouse. After two hours, blood was collected from the orbital vein under ether anesthesia and the serum was separated by centrifugation (3000 rpm, 30 min, 1° C.). Serum triglyceride levels were assayed using commercially available methods (e.g. INFINITY (Registered Trade Mark) triglycerides reagent; Sigma Chemical Co.). The results were compared with L-Val-L-Val-L-Tyr-L-Pro (Reference Peptide 1), L-Val-L-Tyr-L-Pro (Reference Peptide 2), and L-Val-L-Thr-L-Leu (Reference Peptide 3) and shown in Table 1.

Substance: D-Leu D-Thr D-Val C-NH2 [Retro Inverso Polypeptide 3]
- Serum Triglyceride: 294.6 ± 33.8 mg/100 ml
- % Decrease (serum triglyceride): 28.7%
- Activity in lowering elevated serum triglyceride levels compared with the corresponding natural reference peptide: higher activities in lowering elevated serum triglyceride levels than Reference 2 and 3, respectively
- Activity in lowering elevated serum triglyceride levels compared with the corresponding natural reference peptide (listed as D-Leu D-Thr D-Val): substantially exceed the activity of the corresponding natural oligopeptide

Substance: D-Pro D-Tyr D-Val C-NH2 [Retro Inverso Polypeptide 2]
- Serum Triglyceride: 231.8 ± 27.6 mg/100 ml
- % Decrease (serum triglyceride): 50.8%
- Activity in lowering elevated serum triglyceride levels compared with the corresponding natural reference peptide: substantially exceed the activity of the corresponding natural oligopeptide

Substance: D-Pro D-Tyr D-Val D-Val C-NH2 [Retro Inverso Polypeptide 1]
- Serum Triglyceride: 313.7 ± 45.9 mg/100 ml
- % Decrease (serum triglyceride): 22.0%
- Activity in lowering elevated serum triglyceride levels compared with the corresponding natural reference peptide: higher activities in lowering elevated serum triglyceride levels than Reference 2 and 3, respectively; also recorded: about half of Reference Peptide 1

Substance: L-Val-L-Thr-L-Leu [Ref. Peptide 3, reference compound]
- Serum Triglyceride: 352.7 ± 35.6 mg/100 ml
- % Decrease (serum triglyceride): 8.3%

Substance: L-Val-L-Tyr-L-Pro [Ref. Peptide 2, reference compound]
- Serum Triglyceride: 407.7 ± 42.0 mg/100 ml
- % Decrease (serum triglyceride): 0%

Substance: L-Val-L-Val-L-Tyr-L-Pro [Ref. Peptide 1, reference compound]
- Serum Triglyceride: 244.7 ± 25.5 mg/100 ml
- % Decrease (serum triglyceride): 46.3%
